Data taken from ChEMBL document CHEMBL6153065, “Heterologous Expression and Characterization of Estercin A, a Class II Lanthipeptide Derived from Clostridium estertheticum CF016, with Antimicrobial Activity against Clinically Relevant Pathogens” (2025).
Converted amounts (≈) assume the structure as drawn. The source made the active and inactive calls. The rule behind the calls is not given here. *1 amine or outer side, *2 acyl side, *3 side chain or, on linkers, in order; H or OH if unused. Where a SMILES comes first, the peptide text is derived from it. Bridges are numbered along the chain shown (N, C = ends). [ ]: non-standard residue; d: D form. X1 = O=C([C@@H](N[*:1])[C@H](O)C[*:3])[*:2]; Abu(4-yl) = O=C([C@H](CC[*:3])N[*:1])[*:2]

Experiments:
[1] = test system: Bacillus cereus; experiment: Antibacterial activity against Bacillus cereus ATCC14579 assessed as inhibition of bacterial growth at 1 mg/ml incubated for 16 hrs by agar well diffusion assay relative to control; format: functional; parameters: scale not given: the % may be the effect or the level left
[2] = test system: Lactococcus lactis; experiment: Antibacterial activity against Lactococcus lactis MG1363 assessed as inhibition of bacterial growth at 1 mg/ml incubated for 16 hrs by agar well diffusion assay relative to control; format: functional; parameters: scale not given: the % may be the effect or the level left
[3] = test system: Staphylococcus aureus; experiment: Antibacterial activity against Staphylococcus aureus LMG15975 assessed as inhibition of bacterial growth at 1 mg/ml incubated for 16 hrs by agar well diffusion assay relative to control; format: functional; parameters: scale not given: the % may be the effect or the level left
[4] = test system: Clostridium perfringens; experiment: Antibacterial activity against Clostridium perfringens CECT376 assessed as bacterial growth inhibition incubated for 18 hrs by Mueller-Hinton broth based doubling dilution method; format: functional
[5] = test system: Staphylococcus aureus; experiment: Antibacterial activity against methicillin-resistant Staphylococcus aureus LMG15975 assessed as bacterial growth inhibition incubated for 18 hrs by Mueller-Hinton broth based doubling dilution method; format: functional
[6] = test system: Lactococcus lactis; experiment: Antibacterial activity against Lactococcus lactis MG1363 at 1 mg/ml incubated at pH 2 for 4 hrs; format: functional, organism-based
[7] = test system: Lactococcus lactis; experiment: Antibacterial activity against Lactococcus lactis MG1363 at 1 mg/ml incubated under 22 degreeC for 4 hrs; format: functional, organism-based
[8] = test system: Lactococcus lactis; experiment: Antibacterial activity against Lactococcus lactis MG1363 at 1 mg/ml incubated under 55 degreeC for 4 hrs; format: functional, organism-based
[9] = test system: Clostridium botulinum; experiment: Antibacterial activity against Clostridium botulinum CECT551 assessed as bacterial growth inhibition incubated for 18 hrs by Mueller-Hinton broth based doubling dilution method; format: functional
[10] = test system: Bacillus cereus; experiment: Antibacterial activity against Bacillus cereus ATCC14579 assessed as bacterial growth inhibition incubated for 18 hrs by Mueller-Hinton broth based doubling dilution method; format: functional
[11] = test system: Lactococcus lactis; experiment: Antibacterial activity against Lactococcus lactis MG1363 at 1 mg/ml incubated under 95 degreeC for 4 hrs; format: functional, organism-based
[12] = test system: Lactococcus lactis; experiment: Antibacterial activity against Lactococcus lactis MG1363 at 1 mg/ml incubated at pH 4 for 4 hrs; format: functional, organism-based
[13] = test system: Lactococcus lactis; experiment: Binding affinity to Lactococcus lactis MG1363 lipid II at 8 ug by Spot-on-lawn assay; details: dose 8.0 µg
[14] = test system: Lactococcus lactis; experiment: Antibacterial activity against Lactococcus lactis MG1363 at 1 mg/ml incubated at pH 10 for 4 hrs; format: functional, organism-based
[15] = test system: Lactococcus lactis; experiment: Antibacterial activity against Lactococcus lactis MG1363 at 1 mg/ml incubated at pH 7 for 4 hrs; format: functional, organism-based
[16] = test system: Cell membrane; experiment: Induction of membrane permeabilization in Lactococcus lactis MG1363 assessed as pore forming ability by measuring increase in red fluorescence at 2 times MIC measured after 15 mins by SYTO-9 Green dye/red PI staining based fluorescence microscopy; format: subcellular
[17] = test system: Lactococcus lactis; experiment: Antibacterial activity against Lactococcus lactis MG1363 at 1 mg/ml incubated for 2 hrs in presence of trypsin by agar plate method; format: functional, organism-based
[18] = test system: Clostridium tetani; experiment: Antibacterial activity against Clostridium tetani CECT4629 assessed as bacterial growth inhibition incubated for 18 hrs by Mueller-Hinton broth based doubling dilution method; format: functional
[19] = test system: Staphylococcus aureus; experiment: Antibacterial activity against Staphylococcus aureus LMG10147 assessed as bacterial growth inhibition incubated for 18 hrs by Mueller-Hinton broth based doubling dilution method; format: functional
[20] = test system: Enterococcus faecalis; experiment: Antibacterial activity against vancomycin-resistant Enterococcus faecalis LMG16216 assessed as bacterial growth inhibition incubated for 18 hrs by Mueller-Hinton broth based doubling dilution method; format: functional
[21] = test system: Lactococcus lactis; experiment: Antibacterial activity against Lactococcus lactis MG1363 assessed as bacterial death at 10 times of MIC by time killing assay; format: functional, organism-based
[22] = test system: Lactococcus lactis; experiment: Antibacterial activity against Lactococcus lactis MG1363 assessed as bacterial growth inhibition incubated for 18 hrs by Mueller-Hinton broth based doubling dilution method; format: functional
[23] = test system: Enterococcus faecium; experiment: Antibacterial activity against vancomycin-resistant Enterococcus faecium LMG16003 assessed as bacterial growth inhibition incubated for 18 hrs by Mueller-Hinton broth based doubling dilution method; format: functional
[24] = test system: Listeria monocytogenes; experiment: Antibacterial activity against Listeria monocytogenes LMG10470 assessed as bacterial growth inhibition incubated for 18 hrs by Mueller-Hinton broth based doubling dilution method; format: functional
[25] = test system: Lactococcus lactis; experiment: Antibacterial activity against Lactococcus lactis MG1363 assessed as inhibition of bacterial growth by measuring increased activity more than estercin A (100%) at 1 mg/ml incubated for 16 hrs by agar well diffusion assay; format: functional; parameters: scale not given: the % may be the effect or the level left
[26] = test system: Bacillus cereus; experiment: Antibacterial activity against Bacillus cereus ATCC14579 assessed as inhibition of bacterial growth by measuring increased activity more than estercin A (100%) at 1 mg/ml incubated for 16 hrs by agar well diffusion assay; format: functional; parameters: scale not given: the % may be the effect or the level left

C=C1NC(=O)[C@H](C(C)C)NC(=O)[C@@H]2CSC[C@@H](C(=O)N[C@@H](CCCCN)C(=O)O)NC(=O)[C@H](CSC[C@@H]3NC(=O)[C@H](Cc4ccccc4)NC(=O)[C@@H](NC(=O)[C@H](CC(N)=O)NC(=O)[C@@H](NC(=O)[C@@H](NC(=O)CNC(=O)CNC(=O)CN)C(C)C)[C@@H](C)CC)CSC[C@H](NC(=O)[C@H](CCC(=O)O)NC(=O)[C@H](Cc4c[nH]cn4)NC3=O)C(=O)N[C@@H](Cc3ccc(O)cc3)C(=O)N[C@@H](Cc3ccc(O)cc3)C(=O)N[C@@H](CC(N)=O)C(=O)N2)NC(=O)CNC(=O)CNC(=O)[C@H](Cc2c[nH]c3ccccc23)NC(=O)[C@H](CO)NC(=O)[C@H](C)NC(=O)[C@@H]2CCCN2C1=O
Activity [1]: 100%
Activity [2]: 100%
Activity [3]: 100%

C=C1NC(=O)[C@H](C(C)C)NC(=O)[C@@H]2CSC[C@@H](C(=O)N[C@@H](CCCCN)C(=O)O)NC(=O)[C@H](CSC[C@H]3NC(=O)[C@H](Cc4ccccc4)NC(=O)[C@@H](NC(=O)[C@@H](NC(=O)[C@@H](NC(=O)[C@@H](NC(=O)CNC(=O)CNC(=O)CN)C(C)C)[C@@H](C)CC)[C@@H](C)O)CSC[C@H](NC(=O)[C@H](CCC(=O)O)NC(=O)[C@H](Cc4c[nH]cn4)NC3=O)C(=O)N[C@@H](Cc3ccc(O)cc3)C(=O)N[C@@H](Cc3ccc(O)cc3)C(=O)N[C@@H](CC(N)=O)C(=O)N2)NC(=O)[C@H]([C@@H](C)O)NC(=O)CNC(=O)[C@H](Cc2c[nH]c3ccccc23)NC(=O)[C@H](CO)NC(=O)[C@H](C)NC(=O)[C@@H]2CCCN2C1=O
Activity [1]: inactive
Activity [2]: inactive
Activity [3]: inactive

CC[C@H](C)[C@H](NC(=O)[C@@H](NC(=O)[C@H](CCCCN)NC(=O)[C@H](CC(C)C)NC(=O)[C@@H](NC(=O)CNC(=O)[C@H](CC(N)=O)NC(=O)CN)C(C)C)[C@@H](C)O)C(=O)N[C@H]1CCSC[C@@H]2NC(=O)[C@@H](NC(=O)[C@H](Cc3ccccc3)NC(=O)[C@H](CC(C)C)NC(=O)[C@H](Cc3ccccc3)NC(=O)[C@H](CCC(N)=O)NC(=O)[C@H](Cc3c[nH]c4ccccc34)NC(=O)[C@H]([C@@H](C)O)NC(=O)[C@H](CC(N)=O)NC(=O)[C@H](CCSC)NC(=O)[C@H](CC(N)=O)NC(=O)[C@H](CS)NC(=O)[C@H](CCC(=O)O)NC(=O)[C@H](Cc3c[nH]cn3)NC1=O)[C@H](O)CSC[C@@H](C(=O)O)NC2=O (H-GNGVLKTI[Abu(4-yl)]HECNMNTWQFLF[X1]CC-OH; thioether 9-23, 22-24)
MIC [4]: 75 µg/mL (≈ 27.4 µM)

C=C1NC(=O)[C@H](C(C)C)NC(=O)[C@@H]2CSC[C@@H](C(=O)N[C@@H](CCCCN)C(=O)O)NC(=O)[C@H](CSC[C@@H]3NC(=O)[C@H](Cc4ccccc4)NC(=O)[C@@H](NC(=O)[C@@H](NC(=O)[C@@H](NC(=O)[C@@H](NC(=O)CNC(=O)CNC(=O)CN)C(C)C)[C@@H](C)CC)[C@@H](C)O)CSC[C@H](NC(=O)[C@H](CCC(=O)O)NC(=O)[C@H](Cc4c[nH]cn4)NC3=O)C(=O)N[C@@H](Cc3ccc(O)cc3)C(=O)N[C@@H](Cc3ccc(O)cc3)C(=O)N[C@@H](CC(N)=O)C(=O)N2)NC(=O)CNC(=O)CNC(=O)[C@H](Cc2c[nH]c3ccccc23)NC(=O)[C@H](CO)NC(=O)[C@H](C)NC(=O)[C@@H]2CCCN2C1=O
MIC [5]: 4 µg/mL (≈ 1.47 µM)
Activity [6]: Active
Activity [7]: inactive
Activity [8]: inactive
MIC [9]: 32 µg/mL (≈ 11.7 µM)
MIC [10]: 8 µg/mL (≈ 2.94 µM)
Activity [11]: Not active; Less Than 30% Reduction In Activity Observed Relative To Control
Activity [12]: Active
Activity [1]: 100%
Activity [2]: 100%
MIC [4]: 1 µg/mL (≈ 0.367 µM)
Activity [13]: Active
Activity [14]: Active
Activity [15]: Active
Activity [16]: Not active; Only Green Fluorescence Observed
Activity [17]: Active; More Resistant Compared To Nisin
MIC [18]: 4 µg/mL (≈ 1.47 µM)
MIC [19]: 16 µg/mL (≈ 5.87 µM)
MIC [20]: 64 µg/mL (≈ 23.5 µM)
Activity [3]: 100%
Activity [21]: Not active; Slower Rate Of Killing Observed
MIC [22]: 4 µg/mL (≈ 1.47 µM)
MIC [23]: 64 µg/mL (≈ 23.5 µM)
MIC [24]: > 64 µg/mL

C=C(NC(=O)[C@@H](NC(=O)[C@H](Cc1c[nH]cn1)NC(=O)[C@@H](NC(=O)[C@H](CO)NC(=O)[C@@H]1CS[C@@H](C)[C@H]2NC(=O)C(=C)NC(=O)[C@H](NC(=O)[C@H](CCCCN)NC(=O)[C@H](CCSC)NC(=O)[C@H](CC(N)=O)NC(=O)[C@@H]3CS[C@@H](C)[C@@H](NC(=O)[C@H](CCCNN)NC(=O)[C@@H]4CS[C@@H](C)[C@@H](NC(=O)[C@@H]5CSC[C@@H](NC(=O)/C(=C\C)NC(=O)[C@@H](N)[C@@H](C)CC)C(=O)N[C@@H]([C@@H](C)CC)C(=O)NC(=C)C(=O)N[C@@H]([C@@H](C)CC)C(=O)N5)C(=O)N5CCC[C@H]5C(=O)NCC(=O)N4)C(=O)NCC(=O)N[C@@H](C)C(=O)N[C@@H]([C@@H](C)CC)C(=O)N[C@@H](CCSC)C(=O)NCC(=O)N3)[C@H](C)SC[C@H](NC2=O)C(=O)N[C@@H](Cc2c[nH]cn2)C(=O)N1)[C@@H](C)CC)C(C)C)C(=O)N[C@@H](CCCCN)C(=O)O
MIC [5]: 4 µg/mL (≈ 1.19 µM)
Activity [6]: Active
MIC [9]: 4 µg/mL (≈ 1.19 µM)
MIC [10]: 4 µg/mL (≈ 1.19 µM)
Activity [12]: Active
MIC [4]: 1 µg/mL (≈ 0.298 µM)
Activity [14]: Active
Activity [15]: Active
Activity [16]: Active
MIC [18]: 4 µg/mL (≈ 1.19 µM)
MIC [19]: 16 µg/mL (≈ 4.77 µM)
MIC [20]: 4 µg/mL (≈ 1.19 µM)
Activity [21]: Active; Rapid Cell Death Observed
MIC [22]: 0.016 µg/mL (≈ 0.00477 µM)
MIC [23]: 4 µg/mL (≈ 1.19 µM)
MIC [24]: 8 µg/mL (≈ 2.39 µM)

C=C1NC(=O)[C@H](C(C)C)NC(=O)[C@@H]2CSC[C@@H](C(=O)N[C@@H](CCCCN)C(=O)O)NC(=O)[C@H](CSC[C@H]3NC(=O)[C@H](Cc4ccccc4)NC(=O)[C@@H](NC(=O)[C@@H](NC(=O)[C@@H](NC(=O)[C@@H](NC(=O)CNC(=O)CNC(=O)CN)C(C)C)[C@@H](C)CC)[C@@H](C)O)CSC[C@@H](NC(=O)[C@H](CCC(=O)O)NC(=O)[C@H](Cc4c[nH]cn4)NC3=O)C(=O)N[C@@H](Cc3ccc(O)cc3)C(=O)N[C@@H](Cc3ccc(O)cc3)C(=O)N[C@@H](CC(N)=O)C(=O)N2)NC(=O)CNC(=O)[C@H](CO)NC(=O)[C@H](C)NC(=O)[C@@H]2CCCN2C1=O
Activity [1]: inactive
Activity [2]: inactive
Activity [3]: inactive

C=C1NC(=O)[C@H](C(C)C)NC(=O)[C@@H]2CSC[C@@H](C(=O)N[C@@H](CCCCN)C(=O)O)NC(=O)[C@H](CSC[C@@H]3NC(=O)[C@H](Cc4ccccc4)NC(=O)[C@@H](NC(=O)[C@@H](NC(=O)[C@@H](NC(=O)[C@@H](NC(=O)CNC(=O)[C@H](CC(N)=O)NC(=O)CN)C(C)C)[C@@H](C)CC)[C@@H](C)O)CSC[C@H](NC(=O)[C@H](CCC(=O)O)NC(=O)[C@H](Cc4c[nH]cn4)NC3=O)C(=O)N[C@@H](Cc3ccc(O)cc3)C(=O)N[C@@H](Cc3ccc(O)cc3)C(=O)N[C@@H](CC(N)=O)C(=O)N2)NC(=O)CNC(=O)CNC(=O)[C@H](Cc2c[nH]c3ccccc23)NC(=O)[C@H](CO)NC(=O)[C@H](C)NC(=O)[C@@H]2CCCN2C1=O
Activity [25]: 20%
Activity [26]: 20%
Activity [3]: 100%
